Test results reported in patent US4792554A, “Pyridine compounds, pharaceutical compositions, their use in allergy therapy” (priority 1985, dated 1988).
Where a name gives a salt, the structure may show the parent alone. Read-outs that look alike come from different tables or passages of the source.

Key:
[1] = Acute toxicity, mortality within 7 days after single i.p. administration to NMRI mice; settings: in vivo, ip, mouse i.p.
Protocol: The LD50 values were determined by the standard method of the mortality occurring within 7 days after a single intraperitoneal (i.p.) administration to NMRI mice (NMRI=Naval Medical Research Institute).

[2] = tested on: rat peritoneal mast cells; assay: Histamine release from isolated rat mast cells induced by calcium ionophore A 23 187; type: cell-based; settings: for IC50: Mast cell, 0.25 h, 15 min incubation, A 23 187 10^-6 g/ml, read-out: Inhibitory action in the Ca ionophore test IC50
Protocol: (b) Histamine release from isolated rat mast celss induced by calcium ionophore A 23 187 […] […] For this purpose, 10^4 cells were suspended in Clicks/RPMI (50:50, vol.; supplied by Serva, Heidelberg) tissue culture medium, incubated with the test substance for 15 minutes, and then treated with calcium ionophore A 23 187 at a concentration of 10^-6 g/ml. The released histamine was determined by high-pressure liquid chromatography (HPLC). The measure used for the inhibitory action was the IC50 which represents the molar concentration (mol/l) at which the induced histamine release was decreased to one half that of cells which had not been pretreated with a product. In this context, IC50 values above 10^-5 mol/l are regarded as therapeutically irrelevant.

mast cells [3] = assay: Passive cutaneous anaphylaxis (PCA) in the rat, inhibition of mediator release (protective effect on mast cells); type: in vivo; settings: for inhibition in vivo at 25 mg/kg: oral dose 25 mg/kg; for inhibition in vivo at 50 mg/kg: oral dose 50 mg/kg
Excerpt: (a) Passive cutaneous anaphylaxis (PCA) in the rat (PCA test) Passive cutaneous anaphylaxis is an IgE-mediated allergy of the immediate type (type I). In this model, antibodies bound to mast cells and basophilic granulocytes react with an intravenously administered antigen with release of excessive amount of the allergy mediators. The histamine which is released during this can be visualized by simultaneous application of Evans blue to the shaven flanks of the rats. Photometric evaluation of the color intensity was used to determine, by means of the percentage inhibition of mediator release compared with untreated control animals, the protective effect on mast cells of the compound according to the invention after oral administration.

bradykinin = assay: Antagonistic action towards bradykinin: inhibition of bradykinin-induced bronchospasm in anesthetized guinea pigs (Konzett-Rössler); type: in vivo, guinea pig; settings: Cavia porcellus, iv, read-out: Inhibitory action towards bradykinin (ED50)
Protocol: (§1) 1. Antagonistic action towards the allergy mediators (on anesthetized guinea pigs)
(§2) The test substances were administered intravenously in aqueous solution injected in a volume of 1 ml/kg.

[4] = state of the art; cited from earlier work
[5] = cited from earlier work
[6] = long-term therapy, state of the art; cited from earlier work
mast cells [7] = settings: British Pat. No. 1,144,905; cited from earlier work
histamine = assay: Antagonistic action towards histamine: inhibition of histamine-induced bronchospasm in anesthetized guinea pigs (Konzett-Rössler); type: in vivo, guinea pig; settings: Cavia porcellus, iv, read-out: Inhibitory action towards histamine (ED50)
Protocol: as §1, §2

[8] = Anticholinergic action in the Konzett-Rössler model; type: in vivo, guinea pig
[9] = tested on: histamine and leukotrienes; settings: state of the art; cited from earlier work
[10] = tested on: platelet activating factor (PAF); assay: Antagonism of PAF-induced bronchospasm in anesthetized rats; type: in vivo, rat; settings: PAF test
Protocol: The compounds of the formula I and their salts additionally show a pronounced inhibitory action on platelet activating factor (PAF) and the leukotrienes, which are likewise released as spasmogenic mediators from the mast cells during the course of the immediate anaphylactic reaction. It was possible to antagonize the bronchospasm induced in anesthetized rats by administration of PAF by, for example, intravenous administration of the compound of Example 3 with a ED50 of 1-3 mg/kg. The said products of the state of the art, such as oxatomide, ketotiphen and terfenadine, have no action in this test. The contractions induced by calcium ionophore A 23 187 in isolated strips of lung and the isolated trachea of guinea pigs were inhibited by, for example, the compound of Example 3 with an IC50 of 0.1-0.3 μg/ml. Since calcium ionophore A 23 187 stimulates 5-lipoxygenase and thus promotes the formation of spasmogenic leukotrienes, a possible interpretation of the result of this experiment is that the compounds according to the invention are potent leukotriene inhibitors.

[11] = tested on: spontaneous motility of the mouse; assay: Spontaneous motility of the mouse (central sedation); type: in vivo; settings: oral, 1 mg/kg
[12] = tested on: airway obstruction induced by histamine aerosol; assay: Plethysmographic investigation on conscious guinea pigs with airway obstruction induced by inhalation of histamine aerosol; type: in vivo, guinea pig; settings: oral, 0.3% strength histamine aerosol
[13] = state of the art; cited from earlier work; remark: listed apart in the source
[14] = anesthetized guinea pigs, dose reducing induced spasm to one half

SMILES | LD50 at 168 h [1] | IC50 [2] | inhibition in vivo at 50 mg/kg (mast cells [3]; Mast cell) | ED50 (bradykinin; [14]) | ED50 (histamine; [14]) | other results
Cc1cc(N2CCSCC2)c([N+](=O)[O-])c(C)n1.Cl [4-(2,6-dimethyl-3-nitro-4-pyridyl)thiomorpholine hydrochloride, reference compound] | 150 to 300 mg/kg | < 100 µM | 13% | 3.16 mg/kg |  | inhibition of histamine release in the Ca ionophore test (in words) [2]: inactive; inhibition in vivo at 12.5 mg/kg (mast cells [3]; Mast cell, oral dose 12.5 mg/kg): 0%; inhibition in vivo at 25 mg/kg (mast cells [3]; Mast cell): 0%; protective effect on mast cells in PCA test (in words) (mast cells [3]; oral administration): inactive
COc1ccc(CCN2CCC(Nc3nc4ccccc4n3Cc3ccc(F)cc3)CC2)cc1 [ASTEMIZOLE] |  |  |  |  |  | solubility in water [4]: insolubility in water; sedation ([5]; side effect, state of the art): no sedative side effect; weight gain [6]: undesired weight gain
O=C(O)c1cc(=O)c2c(OCC(O)COc3cccc4oc(C(=O)O)cc(=O)c34)cccc2o1 [CHROMOGLICIC ACID] |  |  |  |  |  | stabilizing mast cells (mast cells [7]): stabilizing mast cells
Cc1cc(NCCN2CCN(C(c3ccccc3)c3ccccc3)CC2)c([N+](=O)[O-])c(C)[n+]1[O-].Cl.Cl.Cl.O.O [Example 1, 2,6-Dimethyl-3-nitro-4-[(2-{4-diphenylmethyl-1-piperazinyl}ethyl)amino]pyridine 1-oxide trihydrochloride dihydrate] | > 150 mg/kg | 0.1 µM | 91% |  |  | ED50 (bradykinin): 1 to 3 mg/kg; ED50 (histamine): 0.3 to 1 mg/kg
Cc1cc(NCCN2CCN(Cc3ccccc3)CC2)c([N+](=O)[O-])c(C)n1 [Example 2, 4-[(2-(4-benzyl-1-piperazinyl)ethyl)amino]-2,6-dimethyl-3-nitropyridinetrihydrochloride] |  | 10 µM | 67% |  |  | 
Cc1cc(NCCN2CCN(C(c3ccccc3)c3ccccc3)CC2)c(N)c(C)n1.Cl.Cl.Cl.O.O [Example 4, 3-amino-2,6-dimethyl-4-[(2-{4-diphenylmethyl-1-piperazinyl}ethyl)amino]pyridine trihydrochloride dihydrate] |  | 0.05 µM | 73% |  |  | anticholinergic action [8]: strong anticholinergic action
Cc1cc(NCCN2CCN(C(c3ccccc3)c3ccccc3)CC2)c(C(=O)O)c(C)n1.Cl.Cl.Cl.O.O [Example 5, 2,6-dimethyl-4-[(2-{4-diphenylmethyl-1-piperazinyl}-ethyl)amino]pyridine-3-carboxylic acid trihydrochloride dihydrate] | 300 to 600 mg/kg | 0.1 µM | 91% |  |  | ED50 (bradykinin): 3 mg/kg; anticholinergic action [8]: strong anticholinergic action; ED50 (histamine): 1 to 3 mg/kg
Cc1cc(NCCN2CCC(=C(c3ccccc3)c3ccccc3)CC2)c([N+](=O)[O-])c(C)n1.Cl.Cl.O.O [Example 6, 2,6-dimethyl-3-nitro-4-[(2-{4-diphenylmethylene-1-piperidyl}ethyl)amino]pyridine dihydrochloride dihydrate] | 600 to 1200 mg/kg |  | 91% |  |  | ED50 (bradykinin): 3 to 6 mg/kg; ED50 (histamine): 1 to 3 mg/kg
Cc1cc(NCCCN2CCN(C(c3ccccc3)c3ccccc3)CC2)c([N+](=O)[O-])c(C)n1 [Example 7] | 150 to 300 mg/kg | 0.01 µM | 55% | 3 to 10 mg/kg | 3 mg/kg | 
Cc1cc(NCCN2CCN(CC=Cc3ccccc3)CC2)c([N+](=O)[O-])c(C)n1 [Example 8] | 75 to 150 mg/kg | 0.1 µM | 60% | 3 to 10 mg/kg | 3 mg/kg | 
Cc1cc(NCCN2CCN(C(c3ccccc3)c3ccccc3)CC2)c(C#N)c(C)n1 [Example 9] | 300 to 600 mg/kg | 0.01 µM | 64% | 3 to 10 mg/kg | 0.3 to 1 mg/kg | 
Cc1cc(NCCN2CCN(C(c3ccccc3)c3ccccc3)CC2)c(C#N)c(C)[n+]1[O-] [Example 10] | 75 to 150 mg/kg | < 0.01 µM | 91% | 1 to 3 mg/kg | 0.1 to 0.3 mg/kg | 
CCCc1cc(NCCN2CCN(C(c3ccccc3)c3ccccc3)CC2)c([N+](=O)[O-])c(CCC)n1 [Example 12] |  |  | 61% |  |  | 
Cc1cc(N(C)CCN2CCN(C(c3ccccc3)c3ccccc3)CC2)c([N+](=O)[O-])c(C)n1 [Example 13] | 150 to 300 mg/kg | < 0.01 µM | 68% | 10 mg/kg | 1 to 3 mg/kg | 
Cc1cc(NCCN2CCN(C(c3ccccc3)c3ccc(Cl)cc3)CC2)c([N+](=O)[O-])c(C)n1 (stereo not drawn) [Example 14] | 150 to 300 mg/kg | 1 µM | 55% | 3 to 10 mg/kg | 1 to 3 mg/kg | 
Cc1cc(NCCN2CCN(C(c3ccc(F)cc3)c3ccc(F)cc3)CC2)c([N+](=O)[O-])c(C)n1 [Example 15] | 300 to 600 mg/kg | 0.1 µM | 59% | 3 to 6 mg/kg | 1 to 3 mg/kg | 
Cc1cc(NCCN2CCN(C(c3ccncc3)c3ccc(Cl)cc3)CC2)c([N+](=O)[O-])c(C)n1 (stereo not drawn) [Example 16] | 300 to 600 mg/kg | 0.1 µM | 75% | 1 mg/kg | 1 mg/kg | inhibition in vivo at 25 mg/kg (mast cells [3]; Mast cell): 46%
Cc1cc(NCCN2CCC(C(O)(c3ccccc3)c3ccccc3)CC2)c([N+](=O)[O-])c(C)n1 [Example 17, 4-[(2-{4-hydroxy(diphenyl)methyl-1-piperidyl}ethyl)amino]-2,6-dimethyl-3-nitropyridine dihydrochloride] | 75 to 150 mg/kg | < 0.01 µM | 91% | 3 to 10 mg/kg | 0.3 mg/kg | 
O=[N+]([O-])c1cnccc1NCCN1CCN(C(c2ccccc2)c2ccccc2)CC1 [Example 21] | 150 to 300 mg/kg |  |  | 0.03 mg/kg | 0.02 mg/kg | 
CN1CCC(=C2c3ccccc3CC(=O)c3sccc32)CC1 [ketotifen] |  |  |  |  |  | antagonistic properties for histamine and leukotrienes [9]: antagonistic properties for histamine and leukotrienes; action on PAF / PAF-induced bronchospasm (in words) [10]: no action; sedation ([5]; side effect, state of the art): pronounced sedation; reduction in the spontaneous motility [11]: significant
O=c1[nH]c2ccccc2n1CCCN1CCN(C(c2ccccc2)c2ccccc2)CC1 [oxatomide] |  |  |  |  |  | antagonistic properties for histamine and leukotrienes [9]: antagonistic properties for histamine and leukotrienes; ED50 ([12]; Cavia porcellus): 25 mg/kg; time after administration to maximum effect [12]: 90 min; action on PAF / PAF-induced bronchospasm (in words) [10]: no action; sedation ([5]; side effect, state of the art): pronounced sedation; onset of action [13]: does not exert its action until several days have passed
CC(C)(C)c1ccc(C(O)CCCN2CCC(C(O)(c3ccccc3)c3ccccc3)CC2)cc1 (stereo not drawn) [terfenadine] |  |  |  |  |  | solubility in water [4]: insolubility in water; action on PAF / PAF-induced bronchospasm (in words) [10]: no action; sedation ([5]; in vivo): no sedative side effect; weight gain [6]: undesired weight gain
